# Experimental data taken from patent US9527807B2, “Sulfonamide derivative and use thereof” (Takeda Pharmaceutical Company Limited, priority 2011, dated 2016).
# Structures can show the parent of a compound that is named as a salt.
# Experiments:
# [1] = target: T1, AMPA receptor (human GluR1 flip/stargazin expressed in CHO-K1 cells) (Homo sapiens, UniProt P42261); test: AMPA receptor function enhancing activity using calcium influx as index; assay type: cell-based; details: change in fluorescence level in 3 min, 100% = 3 mM glutamic acid + 300 μM cyclothiazide, 0% = 3 mM glutamic acid only
# T1 construct: expressed in transfected cells; host or cells: CHO-K1
# Procedure, shortened: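 CHO-K1 cells co-expressing human GluR1 flip and stargazin, Calcium 4 dye with 1.25 mM probenecid; compound added with glutamate (3 mM final), fluorescence change over 3 min. Activity (%) scaled between 3 mM glutamate alone (0%) and glutamate plus 300 μM cyclothiazide (100%).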
# [2] = test system: methamphetamine (MAP)-induced hyperlocomotion; test: methamphetamine (MAP)-induced hyperlocomotion; assay type: in vivo; details: FIG. 1
# [3] = test system: MAP-induced hyperlocomotion in mice; test: Inhibition of methamphetamine (MAP)-induced hyperlocomotion; assay type: in vivo; details: male ICR mice; compound 10 mg/kg p.o. 60 min before MAP 2 mg/kg s.c.; counts 0-120 min after MAP; Welch's t-test; FIG. 1
# Protocol: Male ICR mice were supplied by CLEA Japan, Inc (Japan). After arrival to the vivarium, animals were allowed a minimum of 1 week for acclimation. They were housed under a 12:12-h light/dark cycle in a temperature- and humidity-controlled laboratory and allowed food and water ad libitum.
# A test compound was suspended in 0.5% methylcellulose in distilled water and orally administered (p.o.). Methamphetamine (Dainippon Sumitomo Pharma Co., Ltd.) was dissolved in saline and subcutaneously administered (s.c.). All drugs were dosed in a volume of 10 mL/kg body weight for mice.
# The widely used animal models of psychosis have been the measurement of the extent of hyperlocomotion induced by psychostimulants (e.g., amphetamine, cocaine, methamphetamine, MK-801 and phencyclidine) in rodents (Psychopharmacology 1999, vol. 145: 237-250). 2 compounds (A and B) were tested for its ability to antagonize MAP-induced hyperlocomotion in mice. Male ICR mice were habituated in the locomotor chambers with infrared sensors (BrainScienceIdea Co., Ltd. Japan) to the experiment. […] Locomotion activities were measured, and accumulated counts (120 min after administration of MAP) were calculated in each treatment group. All data were represented as means plus the standard errors of the means (n=3-8) and analyzed using Welch's t-test with significance set at ^$P<0.05, ^$$P<0.01 and ^$$$P<0.001. […]
# T1 sequence (P42261 19-906 isoform P42261-2 limits assumed): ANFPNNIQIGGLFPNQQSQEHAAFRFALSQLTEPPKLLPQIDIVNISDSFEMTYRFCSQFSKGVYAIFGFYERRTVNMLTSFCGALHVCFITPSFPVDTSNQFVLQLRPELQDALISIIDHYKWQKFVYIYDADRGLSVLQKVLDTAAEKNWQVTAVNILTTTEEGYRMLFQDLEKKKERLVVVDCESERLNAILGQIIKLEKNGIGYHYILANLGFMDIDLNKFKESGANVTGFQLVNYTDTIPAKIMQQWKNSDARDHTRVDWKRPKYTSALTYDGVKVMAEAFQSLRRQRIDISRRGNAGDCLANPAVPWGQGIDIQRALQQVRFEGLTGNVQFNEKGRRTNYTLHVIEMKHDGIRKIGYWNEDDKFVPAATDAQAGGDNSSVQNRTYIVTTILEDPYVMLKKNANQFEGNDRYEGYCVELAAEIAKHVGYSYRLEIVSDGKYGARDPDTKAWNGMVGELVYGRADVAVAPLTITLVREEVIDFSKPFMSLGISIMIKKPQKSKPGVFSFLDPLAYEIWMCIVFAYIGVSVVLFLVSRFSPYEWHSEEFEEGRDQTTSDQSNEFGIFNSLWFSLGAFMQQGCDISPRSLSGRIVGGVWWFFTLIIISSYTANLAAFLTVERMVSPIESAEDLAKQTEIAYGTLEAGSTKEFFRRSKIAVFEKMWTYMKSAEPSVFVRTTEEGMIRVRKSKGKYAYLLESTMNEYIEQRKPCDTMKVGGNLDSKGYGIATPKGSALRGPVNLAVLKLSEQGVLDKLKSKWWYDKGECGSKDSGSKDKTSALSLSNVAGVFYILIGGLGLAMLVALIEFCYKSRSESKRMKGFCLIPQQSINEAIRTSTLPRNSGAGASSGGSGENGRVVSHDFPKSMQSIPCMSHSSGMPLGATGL
# T1 sequence (Q9Y698 whole entry partner): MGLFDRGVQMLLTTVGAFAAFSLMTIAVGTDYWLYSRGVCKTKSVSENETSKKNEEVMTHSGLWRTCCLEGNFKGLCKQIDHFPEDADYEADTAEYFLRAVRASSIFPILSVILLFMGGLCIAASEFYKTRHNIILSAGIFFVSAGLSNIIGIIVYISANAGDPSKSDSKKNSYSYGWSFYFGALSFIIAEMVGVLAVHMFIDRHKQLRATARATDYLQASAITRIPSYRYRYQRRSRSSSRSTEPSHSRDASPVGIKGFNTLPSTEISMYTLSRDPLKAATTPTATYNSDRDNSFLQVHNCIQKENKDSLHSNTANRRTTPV
activity (%) [1] [%],SMILES,inhibition of methamphetamine (MAP)-induced hyperlocomotion [2],inhibition of MAP-induced hyperlocomotion (accumulated locomotion counts) [3]
89,"CCS(=O)(=O)N[C@H]1CCC(F)(F)C[C@@H]1COc1ccc(-c2ncc(C#N)cc2F)cc1 [Example 222, N-[(1S,2S)-2-{[4-(5-cyano-3-fluoropyridin-2-yl)phenoxy]methyl}-4,4-difluorocyclohexyl]ethanesulfonamide]",,
87,"Cc1cc(-c2ccc(OC[C@H]3COCC[C@@H]3NS(C)(=O)=O)cc2F)no1 [Example 247, N-[(3R,4S)-3-{[3-fluoro-4-(5-methylisoxazol-3-yl)phenoxy]methyl}tetrahydro-2H-pyran-4-yl]methanesulfonamide]",,
87,"CCS(=O)(=O)N[C@H]1CCOC[C@@H]1COc1ccc(-c2cc(C)on2)c(F)c1 [Example 248, N-[(3R,4S)-3-{[3-fluoro-4-(5-methylisoxazol-3-yl)phenoxy]methyl}tetrahydro-2H-pyran-4-yl]ethanesulfonamide]",,
91,"O=S(=O)(N[C@H]1CCOC[C@@H]1COc1ccc(-c2ncc(Cl)cc2F)cc1)C1CC1 [Example 256, N-[(3R,4S)-3-{[4-(5-chloro-3-fluoropyridin-2-yl)phenoxy]methyl}tetrahydro-2H-pyran-4-yl]cyclopropanesulfonamide]",,
78,"CS(=O)(=O)N[C@H]1CCOC[C@@H]1COc1ccc(-n2cc(C(F)(F)F)cn2)cc1 [Example 265, N-[(3R,4S)-3-({4-[4-(trifluoromethyl)-1H-pyrazol-1-yl]phenoxy}methyl)tetrahydro-2H-pyran-4-yl]methanesulfonamide]",,
98,"CS(=O)(=O)N[C@H]1COCC[C@@H]1COc1ccc(-c2ncc(F)cn2)cc1 [Example 283, N-[(3R,4S)-4-{[4-(5-fluoropyrimidin-2-yl)phenoxy]methyl}tetrahydro-2H-pyran-3-yl]methanesulfonamide]",,
92,"CS(=O)(=O)N[C@H]1COCC[C@@H]1COc1ccc(-c2ncc(Cl)cn2)cc1 [Example 284, N-[(3R,4S)-4-{[4-(5-chloropyrimidin-2-yl)phenoxy]methyl}tetrahydro-2H-pyran-3-yl]methanesulfonamide]",,
91,"O=S(=O)(N[C@H]1CCOC[C@@H]1COc1ccc(-c2ncc(Cl)s2)cc1)C1CC1 [Example 312, N-[(3R,4S)-3-{[4-(5-chloro-1,3-thiazol-2-yl)phenoxy]methyl}tetrahydro-2H-pyran-4-yl]cyclopropanesulfonamide]",,
60,"O=S(=O)(N[C@H]1COCC[C@@H]1COc1ccc(-c2ncc(Cl)cc2F)cc1)C1CC1 [Example 383, N-[(3R,4S)-4-{[4-(5-chloro-3-fluoropyridin-2-yl)phenoxy]methyl}tetrahydro-2H-pyran-3-yl]cyclopropanesulfonamide]",,
89,"CCS(=O)(=O)N[C@H]1CCOC[C@@H]1COc1ccc(-n2cc(Cl)cn2)cc1F [Example 454, N-[(3R,4S)-3-{[4-(4-chloro-1H-pyrazol-1-yl)-2-fluorophenoxy]methyl}tetrahydro-2H-pyran-4-yl]ethanesulfonamide]",,

# More lines, now with the values behind:
SMILES,activity (%) [1] [%],inhibition of methamphetamine (MAP)-induced hyperlocomotion [2],inhibition of MAP-induced hyperlocomotion (accumulated locomotion counts) [3]
"CCS(=O)(=O)N[C@H]1COCC[C@@H]1COc1ccc(-c2ccc(Cl)cn2)cc1 [Example 209, N-[(3R,4S)-4-{[4-(5-chloropyridin-2-yl)phenoxy]methyl}tetrahydro-2H-pyran-3-yl]ethanesulfonamide]",85,,
"CS(=O)(=O)N[C@H]1CCC(F)(F)C[C@@H]1COc1ccc(-c2ncc(C#N)cc2F)cc1 [Example 215, N-[(1S,2S)-2-{[4-(5-cyano-3-fluoropyridin-2-yl)phenoxy]methyl}-4,4-difluorocyclohexyl]methanesulfonamide]",101,,
"O=S(=O)(N[C@H]1COCC[C@@H]1COc1ccc(-c2ccc(F)cn2)cc1F)C1CC1 [Example 264, N-[(3R,4S)-4-{[2-fluoro-4-(5-fluoropyridin-2-yl)phenoxy]methyl}tetrahydro-2H-pyran-3-yl]cyclopropanesulfonamide]",104,,
"CCS(=O)(=O)N[C@H]1CCC(F)(F)C[C@@H]1COc1ccc(-c2cccn(C)c2=O)cc1 [Example 267, N-[(1S,2S)-4,4-difluoro-2-{[4-(1-methyl-2-oxo-1,2-dihydropyridin-3-yl)phenoxy]methyl}cyclohexyl]ethanesulfonamide]",93,,
"CS(=O)(=O)N[C@H]1CCC(F)(F)C[C@@H]1COc1ccc(-c2ccc(C#N)cn2)cc1 [Example 268, N-[(1S,2S)-2-{[4-(5-cyanopyridin-2-yl)phenoxy]methyl}-4,4-difluorocyclohexyl]methanesulfonamide]",101,,
"CS(=O)(=O)N[C@H]1CCOC[C@@H]1COc1ccc(-n2cc(Cl)cn2)cc1 [Example 269, N-[(3R,4S)-3-{[4-(4-chloro-1H-pyrazol-1-yl)phenoxy]methyl}tetrahydro-2H-pyran-4-yl]methanesulfonamide]",93,,
"O=S(=O)(N[C@H]1CCOC[C@@H]1COc1ccc(-n2cc(Cl)cn2)cc1)C1CC1 [Example 277, N-[(3R,4S)-3-{[4-(4-chloro-1H-pyrazol-1-yl)phenoxy]methyl}tetrahydro-2H-pyran-4-yl]cyclopropanesulfonamide]",90,,
"O=S(=O)(N[C@H]1CCCO[C@@H]1COc1ccc(-c2ccc(F)cn2)cc1)C1CC1 [Example 282, 1,5-anhydro-4-[(cyclopropylsulfonyl)amino]-2,3,4-trideoxy-6-β-[4-(5-fluoropyridin-2-yl)phenyl]-D-erythro-hexitol]",96,,
"CCS(=O)(=O)N[C@H]1CCOC[C@@H]1COc1ccc(-c2ccc(C#N)cn2)cc1 [Example 297, N-[(3R,4S)-3-{[4-(5-cyanopyridin-2-yl)phenoxy]methyl}tetrahydro-2H-pyran-4-yl]ethanesulfonamide]",95,,
"CCS(=O)(=O)N[C@H]1CCCO[C@@H]1COc1ccc(-c2ncc(F)cn2)cc1 [Example 399, 1,5-anhydro-2,3,4-trideoxy-4-[(ethylsulfonyl)amino]-6-O-[4-(5-fluoropyrimidin-2-yl)phenyl]-D-erythro-hexitol]",94,,
"CS(=O)(=O)N[C@H]1CCOC[C@@H]1COc1ccc(-n2cccn2)c(F)c1F [Example 425, N-[(3R,4S)-3-{[2,3-difluoro-4-(1H-pyrazol-1-yl)phenoxy]methyl}tetrahydro-2H-pyran-4-yl]methanesulfonamide hydrochloride]",96,,
"CCS(=O)(=O)N[C@H]1CCC(F)(F)C[C@@H]1COc1ccc(N2CCCC2=O)cc1 [Example 482, N-[(1S,2S)-4,4-difluoro-2-{[4-(2-oxopyrrolidin-1-yl)phenoxy]methyl}cyclohexyl] ethanesulfonamide]",99,,
"Cn1cccc(-c2ccc(OC[C@H]3CSCC[C@@H]3NS(C)(=O)=O)cc2)c1=O [Example 518, N-((3S,4S)-3-((4-(1-methyl-2-oxo-1,2-dihydropyridin-3-yl)phenoxy)methyl)tetrahydro-2H-thiopyran-4-yl)methanesulfonamide]",95,,
"CS(=O)(=O)N[C@H]1CCSC[C@@H]1COc1ccc(C2CCOCC2)cc1 [Example 519, N-((3S,4S)-3-((4-(tetrahydro-2H-pyran-4-yl)phenoxy)methyl)tetrahydro-2H-thiopyran-4-yl)methanesulfonamide]",88,,
"CCS(=O)(=O)N[C@H]1CCSC[C@@H]1COc1ccc(-n2cc(C#N)cn2)cc1 [Example 522, N-((3S,4S)-3-((4-(4-cyano-1H-pyrazol-1-yl)phenoxy)methyl)tetrahydro-2H-thiopyran-4-yl)ethanesulfonamide]",95,,
"CCS(=O)(=O)N[C@H]1CCSC[C@@H]1COc1ccc(C2CCOCC2)cc1 [Example 529, N-((3S,4S)-3-((4-(tetrahydro-2H-pyran-4-yl)phenoxy)methyl)tetrahydro-2H-thiopyran-4-yl)ethanesulfonamide]",89,,
"CS(=O)(=O)N[C@H]1CCOC[C@@H]1COc1ccc(-n2cc(Cl)cn2)cc1 [compound A, N-[(3R,4S)-3-{[4-(4-chloro-1H-pyrazol-1-yl)phenoxy]methyl}tetrahydro-2H-pyran-4-yl]methanesulfonamide]",,inhibition,significant inhibition
"CCS(=O)(=O)N[C@H]1CCOC[C@@H]1COc1ccc(-n2cc(Cl)cn2)cc1F [compound B, N-[(3R,4S)-3-{[4-(4-chloro-1H-pyrazol-1-yl)-2-fluorophenoxy]methyl}tetrahydro-2H-pyran-4-yl]ethanesulfonamide]",,inhibition,significant inhibition
